Laboratory results: PubChem BioAssay AID204 (DTP/NCI, 2004)
Several values for one entry are separate records, joined by “and”; a condition that tells them apart may be missing. Equal entries are not always repeated. Toxic doses and inconclusive results are not listed.

System: BDF1 mice, P288 methotrexate-resistant leukemia, survival T/C
Assay: NCI In Vivo Anticancer Drug Screen. Data for tumor model P288 Lymphocytic Leukemia resistant to methotrexate; NSC 740 (intraperitoneal) in B6D2F1 (BDF1) mice
Details: endpoint: median survival time, schedule: Q01DX010 (ip), vehicle: saline, higher = longer survival
Procedure: The antitumor activity of compounds was measured in mice bearing transplantable tumors. Survival or tumor size were measured and the results are expressed as the measurement made in the treated group (T) divided by the measurement made in the vehicle treated control group (C). The tumor model used in this assay is P288 Lymphocytic Leukemia resistant to methotrexate; NSC 740 (intraperitoneal) in B6D2F1 (BDF1) mice

For N=[N+]=CC(=O)OCC(N)C(=O)O (centres undefined), the T/C (dose: 3.13 mg/kg/injection) was 110 % of control, the T/C (dose: 6.25 mg/kg/injection) was 112 % of control and 120 % of control and the T/C (dose: 12.5 mg/kg/injection) was 108 % of control and 120 % of control. The T/C (dose: 25.0 mg/kg/injection) was 120 % of control.
CC1CCOS(=O)O1 (centres undefined) was tested, and the T/C (dose: 10.0 mg/kg/injection) was 91 % of control and 95 % of control, the T/C (dose: 20.0 mg/kg/injection) was 90 % of control and the T/C (dose: 40.0 mg/kg/injection) was 95 % of control. The T/C (dose: 80.0 mg/kg/injection) was 90 % of control.
In the case of C[C@@H]1C[C@@H]([C@H](O)CC2CC(=O)NC(=O)C2)C(=O)[C@@H](C)C1, the T/C (dose: 5.0 mg/kg/injection) is reported as 93 % of control and 94 % of control, the T/C (dose: 10.0 mg/kg/injection) is reported as 88 % of control and 100 % of control and the T/C (dose: 20.0 mg/kg/injection) is reported as 100 % of control. For the same compound, the T/C (dose: 40.0 mg/kg/injection) was 111 % of control.
With C[n+]1c2ccccc2nc2c(N)cc(N)cc21 the T/C (dose: 8.0 mg/kg/injection) was 115 % of control.
For O=c1cnn(C2OC(CO)C(O)C2O)c(=O)[nH]1 (centres undefined), the T/C (dose: 200.0 mg/kg/injection) was 100 % of control, the T/C (dose: 400.0 mg/kg/injection) was 100 % of control and the T/C (dose: 800.0 mg/kg/injection) was 91 % of control.
With c1ccc(CCSc2ncnc3nc[nH]c23)cc1 the T/C (dose: 15.6 mg/kg/injection) was 86 % of control, the T/C (dose: 31.3 mg/kg/injection) was 86 % of control and the T/C (dose: 62.5 mg/kg/injection) was 100 % of control. The T/C (dose: 500.0 mg/kg/injection) was 87 % of control.
For CSc1ncnc2nc[nH]c12, the T/C (dose: 3.13 mg/kg/injection) was 91 % of control and 100 % of control, the T/C (dose: 6.25 mg/kg/injection) was 91 % of control and 96 % of control and the T/C (dose: 50.0 mg/kg/injection) was 90 % of control.
With CC(=O)N(C)C the T/C (dose: 62.5 mg/kg/injection) was 95 % of control and 120 % of control, the T/C (dose: 125.0 mg/kg/injection) was 90 % of control and 95 % of control and the T/C (dose: 250.0 mg/kg/injection) was 105 % of control and 110 % of control. The T/C (dose: 500.0 mg/kg/injection) was 110 % of control.
For Nc1ncnc2[nH]ncc12, the T/C (dose: 1.5 mg/kg/injection) was 100 % of control, the T/C (dose: 3.0 mg/kg/injection) was 95 % of control and 100 % of control and the T/C (dose: 6.0 mg/kg/injection) was 100 % of control and 105 % of control. The T/C (dose: 12.0 mg/kg/injection) was 90 % of control and 110 % of control.
In the case of O=C(Nc1ccc(NC2=NCCN2)cc1)c1ccc(C(=O)Nc2ccc(NC3=NCCN3)cc2)cc1, the T/C (dose: 2.0 mg/kg/injection) is reported as 150 % of control, the T/C (dose: 4.0 mg/kg/injection) is reported as 240 % of control and 250 % of control and the T/C (dose: 8.0 mg/kg/injection) is reported as 250 % of control and 285 % of control. For the same compound, the T/C (dose: 16.0 mg/kg/injection) was 115 % of control.
For Nc1nc(=S)c2ncn(C3OC(CO)C(O)C3O)c2[nH]1 (centres undefined), the T/C (dose: 2.0 mg/kg/injection) was 90 % of control and 91 % of control and 115 % of control, the T/C (dose: 4.0 mg/kg/injection) was 91 % of control and 96 % of control and 120 % of control and the T/C (dose: 8.0 mg/kg/injection) was 93 % of control. For the same compound, the T/C (dose: 16.0 mg/kg/injection) was 90 % of control (2×) and 91 % of control.
With CN(C)c1ccc(/C=C/c2ccnc3ccccc23)cc1 the T/C (dose: 5.0 mg/kg/injection) was 104 % of control, the T/C (dose: 10.0 mg/kg/injection) was 90 % of control and 100 % of control and the T/C (dose: 20.0 mg/kg/injection) was 90 % of control and 100 % of control. The T/C (dose: 40.0 mg/kg/injection) was 90 % of control and 91 % of control.
For CCCCNc1ncnc2c1cnn2C, the T/C (dose: 15.6 mg/kg/injection) was 105 % of control, the T/C (dose: 31.3 mg/kg/injection) was 110 % of control and the T/C (dose: 62.5 mg/kg/injection) was 95 % of control and 110 % of control.
CN(C)c1ccc(Nc2c3ccccc3nc3ccccc23)cc1 was tested, and the T/C (dose: 36.0 mg/kg/injection) was 95 % of control and 115 % of control, the T/C (dose: 54.0 mg/kg/injection) was 115 % of control and 116 % of control and the T/C (dose: 120.0 mg/kg/injection) was 120 % of control.
